Source: patent publication US20250000788A1, “BIOCOMPATIBLE DEVICES FOR CELL-BASED THERAPIES AND RELATED METHODS” (SIGILON THERAPEUTICS, INC., priority 2021, published 2025)

Key:
[1] = system: immune-competent C57Bl/6 mice; assay: PFO induction on spheres with GLA-secreting human cells and drug particles implanted in the peritoneum of mice; format: in vivo; settings: explanted after 20 days; for PFO induction on explanted spheres (brightfield micrographs): GLA-secreting human cells co-encapsulated with drug particles, peritoneum; for computer aided opacity scoring of PFO induction: FIG. 4B
Text: GLA-secreting human cells were co-encapsulated with particles of the indicated drug and implanted in the peritoneum of immune-competent C57Bl/6 mice.
GLA-secreting human ARPE-19 cells were co-encapsulated with or without TAH particles into spheres that were then implanted in the peritoneum of immune-competent C57Bl/6 mice.

[2] = system: immune-competent Sprague Dawley rats; assay: PFO on spheres with FF particles and ARPE-19 cells implanted in the peritoneum of rats; format: in vivo; settings: unmodified ARPE-19 cells or cells secreting one of two parathyroid hormone fusion proteins, 21 days, data not shown
Text: In a third experiment, spheres co-encapsulating FF particles and either unmodified human ARPE-19 cells or ARPE-19 cells genetically modified to secrete one of two different fusion proteins comprising human parathyroid hormone were implanted in the peritoneum of immune-competent Sprague Dawley rats (five rats per group).

[3] = system: immune-competent C57Bl/6 mice; assay: PFO on spheres with mIL-10 secreting ARPE-19 cells and glucocorticoid particles implanted in the peritoneum of mice; format: in vivo; settings: mIL-10 secreting ARPE-19 cells, explanted at 28 days, FIGS. 5C-5L
[4] = Release of soluble drug from alginate spheres containing drug particles, incubated in Normosol; format: physicochemical; settings: 1 ml Normosol, 37 C; over a 62 (Cyclosporine A) and 32 (TAH) day period respectively; FIG. 1B, 2B
Text: Cyclosporine A particles and Triamcinolone Hexacetonide (TAH) particles were encapsulated in the inner compartment of two compartment alginate hydrogel capsules (“spheres”).

[5] = system: immune-competent C57Bl/6 mice; assay: In vivo hGLA production and viability of GLA-secreting human cells co-encapsulated with TAH crystals, implanted in mice
Experimental: GLA-secreting human cells were co-encapsulated with TAH crystals into spheres that were then implanted in the peritoneum of immune-competent C57Bl/6 mice. The amount of hGLA produced by the spheres (e.g., devices) in vivo at site of implantation and in systemic circulation was measured.

[6] = 20 days post-implantation, FIG. 6

Compound: COc1c(C)c2c(c(O)c1C/C=C(\C)CCC(=O)OCCN1CCOCC1)C(=O)OC2 [MMF]
- PFO induction on explanted spheres (brightfield micrographs) [1]: extensive PFO induction
- computer aided opacity scoring of PFO induction [1]: no statistically significant decrease in PFO induction

Compound: fluticasone furoate [FF]
- PFO on explanted spheres [2]: minimal to no PFO
- PFO on explanted spheres [3]: minimal to no PFO

Compound: C[C@@H]1C[C@H]2[C@@H]3CCC4=CC(=O)C=C[C@]4(C)[C@@]3(Cl)[C@@H](O)C[C@]2(C)[C@@]1(OC(=O)c1ccco1)C(=O)CCl [MF, mometasone furoate]
- PFO on explanted spheres [3]: minimal to no PFO

Compound: C[C@@H]1CCN(C(=O)CC#N)C[C@@H]1N(C)c1ncnc2[nH]ccc12 [Tofactitinib]
- PFO induction on explanted spheres (brightfield micrographs) [1]: extensive PFO induction
- computer aided opacity scoring of PFO induction [1]: no statistically significant decrease in PFO induction

Compound: fluticasone propionate [FP]
- PFO on explanted spheres [3]: minimal to no PFO

Compound: CC(C)(C)CC(=O)OCC(=O)[C@@]12OC(C)(C)O[C@@H]1C[C@H]1[C@@H]3CCC4=CC(=O)C=C[C@]4(C)[C@@]3(F)[C@@H](O)C[C@@]12C [TAH, triamcinolone hexacetonide]
- soluble drug released from the spheres into the Normosol solution [4]: extended release
- hGLA in plasma [5, 6]: Significant levels of hGLA
- hGLA in the peritoneal lavage [5, 6]: Significant levels of hGLA
- viability in vivo of co-encapsulated GLA-secreting human cells ([5]; retrieved spheres, over a course of 20 days, data not shown): maintained their viability
- PFO on explanted spheres [3]: minimal to no PFO
- PFO induction on explanted spheres (brightfield micrographs) [1]: completely prevented induction of PFO
